Laboratory results: US6808909B2, “Thermostable phytase with 2.1 Å . . . crystal structure” (Korea Research Institute of Bioscience and Biotechnology, priority 2000, dated 2004)

target: T1, phytase derived from B. amyloliquefaciens DS-11 (Bacillus sp., UniProt O66037); assay: Activity of the phytase on phytate and myo-inositol monophosphate substrates; type: biochemical; conditions: 2 mM substrate, 37° C. for 15 min, 20 mM Tris/HCl (pH7.0) buffer; relative to phytate = 100
T1 construct: made in house; host or cells: Bacillus subtilis DB104/pJPK
Procedure: The activities of the phytase derived from B. amyloliquefaciens DS11 were measured on its 2 mM substrates of myo-inositol, hexaphosphate, mio-inositol 1-monophosphate, mio-inositol 2-monophosphate, myo-inositol 4-monophosphate, after incubating at 37° C. for 15 min in a 20 mM Tris/HCl (pH7.0) buffer.

T1 sequence (O66037 31-383): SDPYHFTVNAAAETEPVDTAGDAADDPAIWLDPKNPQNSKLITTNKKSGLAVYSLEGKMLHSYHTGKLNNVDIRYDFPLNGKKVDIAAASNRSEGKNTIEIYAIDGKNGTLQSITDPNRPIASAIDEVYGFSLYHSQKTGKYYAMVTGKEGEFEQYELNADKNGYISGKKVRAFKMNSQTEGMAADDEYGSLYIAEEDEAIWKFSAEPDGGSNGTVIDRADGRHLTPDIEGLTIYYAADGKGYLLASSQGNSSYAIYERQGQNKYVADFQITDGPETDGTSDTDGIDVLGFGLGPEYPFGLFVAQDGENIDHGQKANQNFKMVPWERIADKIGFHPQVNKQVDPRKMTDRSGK

Row | SMILES | Relative Enzyme Activity (%)
1 | O=P(O)(O)OC1[C@@H](O)[C@@H](O)C(O)[C@H](O)[C@H]1O (stereo partly shown) [4′-monophosphoinositol, myo-inositol 4-monophosphate] | 40
2 | O=P(O)(O)O[C@H]1[C@H](OP(=O)(O)O)[C@@H](OP(=O)(O)O)[C@H](OP(=O)(O)O)[C@@H](OP(=O)(O)O)[C@H]1OP(=O)(O)O [Phytate, myo-inositol, hexaphosphate] | 100
3 | O=P(O)(O)OC1[C@H](O)[C@H](O)C(O)[C@H](O)[C@H]1O (stereo partly shown) [1′-monophosphoinositol, mio-inositol 1-monophosphate] | 27
4 | O=P(O)(O)OC1[C@@H](O)[C@H](O)C(O)[C@H](O)[C@H]1O (stereo partly shown) [2′-monophosphoinositol, mio-inositol 2-monophosphate] | 28
